One may read the EC50 as the midpoint of the concentration-response curve.

Structures are written as SMILES. Read-outs that look alike come from different tables or passages of the source.

The test relates to HIV NL4-3 wt. Description: MT4 antiviral assay, NL4-3 strain wild type. The test is classed as cell-based, HIV-1.
The mark [1] stands for this setting: Human immunodeficiency virus 1, NL43, MT4 cells, read-out: EC50 NL4-3 wt.
Where [2] appears, read: Human immunodeficiency virus 1, NL43, MT4, read-out: EC50 NL4-3 wt (nM).

`CC(C)C1=C2[C@H]3CC[C@@H]4[C@@]5(C)CC[C@H](OC(=O)CC(C)(C)C(=O)O)C(C)(C)[C@@H]5CC[C@@]4(C)[C@]3(C)CC[C@@]2(CCNCc2cccc(Cl)c2F)CC1=O` [Example 8, 4-(((3aR,5aR,5bR,7aR,9S,11aR,11bR,13aS)-3a-(2-((3-Chloro-2-fluorobenzyl)amino)ethyl)-1-isopropyl-5a,5b,8,8,11a-pentamethyl-2-oxo-3,3a,4,5,5a,5b,6,7,7a,8,9,10,11,11a,11b,12,13,13a-octadecahydro-2H-cyclopenta[a]chrysen-9-yl)oxy)-2,2-dimethyl-4-oxobutanoic acid]: under setting [1], the EC50 was 5.9 nM.
With `CC(C)C1=C2[C@H]3CC[C@@H]4[C@@]5(C)CC[C@H](OC(=O)CC(C)(C)C(=O)O)C(C)(C)[C@@H]5CC[C@@]4(C)[C@]3(C)CC[C@@]2(CCNCc2ccccc2)CC1=O` [Example 6, 4-(((3aR,5aR,5bR,7aR,9S,11aR,11bR,13aS)-3a-(2-(Benzylamino)ethyl)-1-isopropyl-5a,5b,8,8,11a-pentamethyl-2-oxo-3,3a,4,5,5a,5b,6,7,7a,8,9,10,11,11a,11b,12,13,13a-octadecahydro-2H-cyclopenta[a]chrysen-9-yl)oxy)-2,2-dimethyl-4-oxobutanoic acid], the concentration for a half-maximal effect (EC50) under setting [2] stood at 0.5 nM.
For `CC(=O)N(CC[C@@]12CC[C@]3(C)[C@H](CC[C@@H]4[C@@]5(C)CC[C@H](OC(=O)CC(C)(C)C(=O)O)C(C)(C)[C@@H]5CC[C@]43C)C1=C(C(C)C)C(=O)C2)Cc1ccc(Cl)cc1` [Example 13, 4-(((3aR,5aR,5bR,7aR,9S,11aR,11bR,13aS)-3a-(2-(N-(4-Chlorobenzyl)acetamido)ethyl)-1-isopropyl-5a,5b,8,8,11a-pentamethyl-2-oxo-3,3a,4,5,5a,5b,6,7,7a,8,9,10,11,11a,11b,12,13,13a-octadecahydro-2H-cyclopenta[a]chrysen-9-yl)oxy)-2,2-dimethyl-4-oxobutanoic acid], the EC50 under setting [1] was 1.6 nM.
On the same count and under the same terms, for `CC(C)C1=C2[C@H]3CC[C@@H]4[C@@]5(C)CC[C@H](OC(=O)CC(C)(C)C(=O)O)C(C)(C)[C@@H]5CC[C@@]4(C)[C@]3(C)CC[C@@]2([C@H](O)CN(CCN(C)C)Cc2ccc(Cl)cc2Cl)CC1=O` [Example 74, 4-(((3aR,5aR,5bR,7aR,9S,11aR,11bR,13aS)-3a-((S)-2-((2,4-dichlorobenzyl)(2-(dimethylamino)ethyl)amino)-1-hydroxyethyl)-1-isopropyl-5a,5b,8,8,11a-pentamethyl-2-oxo-3,3a,4,5,5a,5b,6,7,7a,8,9,10,11,11a,11b,12,13,13a-octadecahydro-2H-cyclopenta[a]chrysen-9-yl)oxy)-2,2-dimethyl-4-oxobutanoic acid] the value was 2.9 nM.
Still for that read-out and setting: the figure for `CC(=O)N(Cc1ccc(Cl)cc1)C[C@@H](O)[C@@]12CC[C@]3(C)[C@H](CC[C@@H]4[C@@]5(C)CC[C@H](OC(=O)CC(C)(C)C(=O)O)C(C)(C)[C@@H]5CC[C@]43C)C1=C(C(C)C)C(=O)C2` [Example 33, 4-(((3aR,5aR,5bR,7aR,9S,11aR,11bR,13aS)-3a-((S)-2-(N-(4-Chlorobenzyl)acetamido)-1-hydroxyethyl)-1-isopropyl-5a,5b,8,8,11a-pentamethyl-2-oxo-3,3a,4,5,5a,5b,6,7,7a,8,9,10,11,11a,11b,12,13,13a-octadecahydro-2H-cyclopenta[a]chrysen-9-yl)oxy)-2,2-dimethyl-4-oxobutanoic acid] is 5.3 nM; for `CC(C)C1=C2[C@H]3CC[C@@H]4[C@@]5(C)CC[C@H](OC(=O)CC(C)(C)C(=O)O)C(C)(C)[C@@H]5CC[C@@]4(C)[C@]3(C)CC[C@@]2([C@H](O)CN(CCN(C)C)Cc2cccc(Cl)c2)CC1=O` [Example 44, 4-(((3aR,5aR,5bR,7aR,9S,11aR,11bR,13aS)-3a-((S)-2-((3-Chlorobenzyl)(2-(dimethylamino)ethyl)amino)-1-hydroxyethyl)-1-isopropyl-5a,5b,8,8,11a-pentamethyl-2-oxo-3,3a,4,5,5a,5b,6,7,7a,8,9,10,11,11a,11b,12,13,13a-octadecahydro-2H-cyclopenta[a]chrysen-9-yl)oxy)-2,2-dimethyl-4-oxobutanoic acid] it is 1.8 nM; for `CC(C)C1=C2[C@H]3CC[C@@H]4[C@@]5(C)CC[C@H](OC(=O)CC(C)(C)C(=O)O)C(C)(C)[C@@H]5CC[C@@]4(C)[C@]3(C)CC[C@@]2([C@@H](O)CN2CCN(C)CC2)CC1` (racemic) [Example 65, 4-(((3aS,5aR,5bR,7aR,9S,11aR,11bR,13aS)-3a-((R)-1-hydroxy-2-(4-methylpiperazin-1-yl)ethyl)-1-isopropyl-5a,5b,8,8,11a-pentamethyl-3,3a,4,5,5a,5b,6,7,7a,8,9,10,11,11a,11b,12,13,13a-octadecahydro-2H-cyclopenta[a]chrysen-9-yl)oxy)-2,2-dimethyl-4-oxobutanoic acid] it is 83.8 nM.
Still for that read-out and setting: the figure for `CC(C)C1=C2[C@H]3CC[C@@H]4[C@@]5(C)CC[C@H](OC(=O)CC(C)(C)CC(=O)O)C(C)(C)[C@@H]5CC[C@@]4(C)[C@]3(C)CC[C@@]2([C@@H](O)CN(CCN(C)C)Cc2ccc(Cl)cc2)CC1=O` [Example 22, 5-(((3aR,5aR,5bR,7aR,9S,11aR,11bR,13aS)-3a-((R)-2-((4-Chlorobenzyl)(2-(dimethylamino)ethyl)amino)-1-hydroxyethyl)-1-isopropyl-5a,5b,8,8,11a-pentamethyl-2-oxo-3,3a,4,5,5a,5b,6,7,7a,8,9,10,11,11a,11b,12,13,13a-octadecahydro-2H-cyclopenta[a]chrysen-9-yl)oxy)-3,3-dimethyl-5-oxopentanoic acid] is 3.3 nM; for `CC(=O)O[C@H](CN(CCN(C)C)Cc1ccc(Cl)cc1)[C@@]12CC[C@]3(C)[C@H](CC[C@@H]4[C@@]5(C)CC[C@H](OC(=O)CC(C)(C)C(=O)O)C(C)(C)[C@@H]5CC[C@]43C)C1=C(C(C)C)C(=O)C2` [Example 20, 4-(((3aR,5aR,5bR,7aR,9S,11aR,11bR,13aS)-3a-((S)-1-Acetoxy-2-((4-chlorobenzyl)(2-(dimethylamino)ethyl)amino)ethyl)-1-isopropyl-5a,5b,8,8,11a-pentamethyl-2-oxo-3,3a,4,5,5a,5b,6,7,7a,8,9,10,11,11a,11b,12,13,13a-octadecahydro-2H-cyclopenta[a]chrysen-9-yl)oxy)-2,2-dimethyl-4-oxobutanoic acid] it is 2.3 nM; for `CC(C)C1=C2[C@H]3CC[C@@H]4[C@@]5(C)CC[C@H](OC(=O)CC(C)(C)C(=O)O)C(C)(C)[C@@H]5CC[C@@]4(C)[C@]3(C)CC[C@@]2([C@H](O)CNCc2ccc(Cl)cc2)CC1=O` [Example 15, 4-(((3aR,5aR,5bR,7aR,9S,11aR,11bR,13aS)-3a-((S)-2-((4-Chlorobenzyl)amino)-1-hydroxyethyl)-1-isopropyl-5a,5b,8,8,11a-pentamethyl-2-oxo-3,3a,4,5,5a,5b,6,7,7a,8,9,10,11,11a,11b,12,13,13a-octadecahydro-2H-cyclopenta[a]chrysen-9-yl)oxy)-2,2-dimethyl-4-oxobutanoic acid] it is 6.9 nM.
Consider `CC(C)C1=C2[C@H]3CC[C@@H]4[C@@]5(C)CC[C@H](OC(=O)CC(C)(C)C(=O)O)C(C)(C)[C@@H]5CC[C@@]4(C)[C@]3(C)CC[C@@]2([C@@H](O)CN(CCN(C)C)Cc2ccccc2Cl)CC1=O` [Example 50, 4-(((3aR,5aR,5bR,7aR,9S,11aR,11bR,13aS)-3a-((R)-2-((2-chlorobenzyl)(2-(dimethylamino)ethyl)amino)-1-hydroxyethyl)-1-isopropyl-5a,5b,8,8,11a-pentamethyl-2-oxo-3,3a,4,5,5a,5b,6,7,7a,8,9,10,11,11a,11b,12,13,13a-octadecahydro-2H-cyclopenta[a]chrysen-9-yl)oxy)-2,2-dimethyl-4-oxobutanoic acid], for which, under setting [1], the EC50 was 1.1 nM.
In the case of `CC(C)C1=C2[C@H]3CC[C@@H]4[C@@]5(C)CC[C@H](OC(=O)CC(C)(C)C(=O)O)C(C)(C)[C@@H]5CC[C@@]4(C)[C@]3(C)CC[C@@]2([C@@H](O)CN(CCN(C)C)Cc2ccc(Cl)cc2Cl)CC1=O` [Example 80, 4-{[(1R,2R,5R,10S,13R,14R, 17S,19R)-5-[(1R)-2-{[(2,4-dichlorophenyl)methyl][2-(dimethylamino)ethyl]amino}-1-hydroxyethyl]-1,2,14,18,18-pentamethyl-7-oxo-8-(propan-2-yl)pentacyclo[11.8.0.0^ {2,10}.0^{5,9}.0^{14,19}]henicos-8-en-17-yl]oxy}-2,2-dimethyl-4-oxobutanoic acid], the EC50 under setting [1] stood at 2.4 nM.
Turning to `CCN(Cc1ccccc1Cl)C[C@H](O)[C@@]12CC[C@]3(C)[C@H](CC[C@@H]4[C@@]5(C)CC[C@H](OC(=O)CC(C)(C)C(=O)O)C(C)(C)[C@@H]5CC[C@]43C)C1=C(C(C)C)C(=O)C2` [Example 49, 4-(((3aR,5aR,5bR,7aR,9S,11aR,11bR,13aS)-3a-((R)-2-((2-chlorobenzyl)(ethyl)amino)-1-hydroxyethyl)-1-isopropyl-5a,5b,8,8,11a-pentamethyl-2-oxo-3,3a,4,5,5a,5b,6,7,7a,8,9,10,11,11a,11b,12,13,13a-octadecahydro-2H-cyclopenta[a]chrysen-9-yl)oxy)-2,2-dimethyl-4-oxobutanoic acid], under setting [2], the EC50 amounted to 21.8 nM.
On the same count and under the same terms, for `CC(=O)O[C@@H](CNCc1cccc(Cl)c1)[C@@]12CC[C@]3(C)[C@H](CC[C@@H]4[C@@]5(C)CC[C@H](OC(=O)CC(C)(C)C(=O)O)C(C)(C)[C@@H]5CC[C@]43C)C1=C(C(C)C)C(=O)C2` [Example 40, 4-(((3aR,5aR,5bR,7aR,9S,11aR,11bR,13aS)-3a-((R)-1-Acetoxy-2-((3-chlorobenzyl)amino)ethyl)-1-isopropyl-5a,5b,8,8,11a-pentamethyl-2-oxo-3,3a,4,5,5a,5b,6,7,7a,8,9,10,11,11a,11b,12,13,13a-octadecahydro-2H-cyclopenta[a]chrysen-9-yl)oxy)-2,2-dimethyl-4-oxobutanoic acid] the value was 11.1 nM.

These data come from patent publication US10064873B2, “Compounds and compositions for treating HIV with derivatives of Betulin” (GlaxoSmithKline LLC, priority 2011, dated 2018).
